Earlier results in patent publication US20160128970A1, “COMPOSITION AND METHOD FOR TREATING NOSEBLEEDS” (BINYARCO, LLC, priority 2005, published 2016).

For bismuth subgallate, the solubility in water is listed as “insoluble in water”.
